Type in all cases: in vivo
Test [1] relates to Plutella xylostella. The experiment in a line: Example B5: Plutella xylostella (diamond back moth), artificial diet, 24-well, eggs. As to conditions: 192 h, application rate of 200 ppm, 8 days after infestation, read-out: control in at least one of the two categories (mortality or growth inhibition). As to the method:
Example B5: Plutella xylostella (Diamond Back Moth)
24-well microtiter plates with artificial diet were treated with aqueous test solutions prepared from 10′000 ppm DMSO stock solutions by pipetting. After drying, Plutella eggs were pipetted through a plastic stencil onto a gel blotting paper and the plate was closed with it. The samples were assessed for mortality and growth inhibition in comparison to untreated samples 8 days after infestation.

Test [2] concerns Plutella xylostella. The experiment in a line: Example B14: Plutella xylostella (diamondback moth), 96-well artificial diet. Particulars: 216 h, application rate of 500 ppm, 9 days after infestation. The method, then: Example B14: Plutella xylostella (Diamondback Moth)
96-well microtiter plates containing artificial diet were treated with aqueous test solutions, prepared from 10′000 ppm DMSO stock solutions, by a liquid handling robot. After drying, eggs (˜30 per well) were infested onto a netted lid which was suspended above the diet. The eggs hatch and L1 larvae move down to the diet. The samples were assessed for mortality 9 days after infestation.

For test [3], the system named is Diabrotica balteata. The experiment in a line: Example B1: Diabrotica balteata (corn root worm), maize sprouts sprayed, L2 larvae. As to conditions: 96 h, application rate of 200 ppm, 4 days after infestation, L2 larvae on maize sprouts, read-out: control in at least one of the two categories (mortality or growth inhibition). As to the method:
Example B1: Diabrotica balteata (Corn Root Worm)
Maize sprouts placed onto an agar layer in 24-well microtiter plates were treated with aqueous test solutions prepared from 10′000 ppm DMSO stock solutions by spraying. After drying, the plates were infested with L2 larvae (6 to 10 per well). The samples were assessed for mortality and growth inhibition in comparison to untreated samples 4 days after infestation.

Test [4] deals with Spodoptera littoralis. The test is described as follows: Example B9: Spodoptera littoralis (Egyptian cotton leaf worm), cotton leaf discs sprayed, L1 larvae. Particulars: foliar, 72 h, application rate of 200 ppm, 3 days after infestation, read-out: control in at least one of the three categories (mortality, anti-feedant effect or growth inhibition).
For test [5], the system named is Myzus persicae. The test is described as follows: Example B13: Myzus persicae (green peach aphid), 96-well sucrose solution. As to conditions: 120 h, application rate of 50 ppm, 5 days after infestation. From the text: Example B13: Myzus persicae (Green Peach Aphid)
Test compounds prepared from 10′000 ppm DMSO stock solutions were applied by a liquid handling robot into 96-well microtiter plates and mixed with a sucrose solution. Parafilm was stretched over the 96-well microtiter plate and a plastic stencil with 96 holes was placed onto the plate. Aphids were sieved into the wells directly onto the Parafilm. The infested plates were closed with a gel blotting card and a second plastic stencil and then turned upside down. The samples were assessed for mortality 5 days after infestation.

Test [6] has as its system Chilo suppressalis. The experiment in a line: Example B4: Chilo suppressalis (striped rice stemborer), artificial diet, L2 larvae. Particulars: 144 h, application rate of 200 ppm, 6 days after infestation, read-out: control in at least one of the three categories (mortality, anti-feedant effect or growth inhibition). The method, then:
Example B4: Chilo suppressalis (Striped Rice Stemborer)
24-well microtiter plates with artificial diet were treated with aqueous test solutions prepared from 10′000 ppm DMSO stock solutions by pipetting. After drying, the plates were infested with L2 larvae (6-8 per well). The samples were assessed for mortality, anti-feeding effect, and growth inhibition in comparison to untreated samples 6 days after infestation. Control of Chilo suppressalis by a test sample is given when at least one of the categories mortality, anti-feedant effect, and growth inhibition is higher than the untreated sample.

The text below walks through data of US12528788B2, “Pesticidally active benzene- and azine-amide compounds” (SYNGENTA CROP PROTECTION AG, priority 2018, dated 2026).

A word on the mortality: it is the percentage killed.

Consider `CC(c1nc(F)ccc1-c1ncccn1)N(CC1CC1)C(=O)c1cc(C(F)(F)F)cc(C(F)(F)F)c1` (stereo not drawn) [Compound P9, N-(cyclopropylmethyl)-N-[1-(6-fluoro-3-pyrimidin-2-yl-2-pyridyl)ethyl]-3,5-bis(trifluoromethyl)benzamide], for which the percent control (mortality or growth inhibition) at 200 ppm in test [1] and in test [3] was at least 80% throughout. Besides, the mortality at 500 ppm in test [2] was at least 80%. Further, in test [4], the percent control (mortality, anti-feedant effect or growth inhibition) at 200 ppm was at least 80%.

As for `CC(NC(=O)c1cc(C(F)(F)F)cc(C(F)(F)F)c1)c1nccnc1-c1ccccn1` (stereo not drawn) [Compound P25, N-[1-[3-(2-pyridyl)pyrazin-2-yl]ethyI]-3,5-bis(trifluoromethyl)benzamide], the percent control (mortality or growth inhibition) at 200 ppm in test [1] and in test [3] was at least 80% throughout. The compound also showed a mortality at 500 ppm in test [2] of at least 80%. For the same compound, the percent control (mortality, anti-feedant effect or growth inhibition) at 200 ppm in test [4] was at least 80%. The compound further showed a mortality at 50 ppm in test [5] of at least 80%.

As to `CC(c1ccccc1-c1ccccn1)N(CC1CC1)C(=O)c1cc(Cl)cc(C(F)(F)F)c1` (stereo not drawn) [Compound P27, 3-chloro-N-(cyclopropylmethyl)-N-[1-[2-(2-pyridyl)phenyl]ethyl]-5-(trifluoromethyl)benzamide], in test [1], the percent control (mortality or growth inhibition) at 200 ppm was at least 80%. Also, the mortality at 500 ppm in test [2] is at least 80%.

With `CC(c1nccnc1-c1ccccn1)N(CC1CC1)C(=O)c1cc(C(F)(F)F)cc(C(F)(F)F)c1` (stereo not drawn) [Compound P7, N-(cyclopropylmethyl)-N-[1-[3-(2-pyridyl)pyrazin-2-yl]ethyl]-3,5-bis(trifluoromethyl)benzamide], the percent control (mortality or growth inhibition) at 200 ppm in test [1] and in test [3] was at least 80% in each case. This compound also returned a mortality at 500 ppm in test [2] of at least 80%. Further, the percent control (mortality, anti-feedant effect or growth inhibition) at 200 ppm in test [4] is at least 80%.

For `CC(c1ncncc1-c1ncccn1)N(CC1CC1)C(=O)c1cc(C(F)(F)F)cc(C(F)(F)F)c1` (stereo not drawn) [Compound P6, N-(cyclopropylmethyl)-N-[1-(5-pyrimidin-2-ylpyrimidin-4-yl)ethyl]-3,5-bis(trifluoromethyl)benzamide], the percent control (mortality or growth inhibition) at 200 ppm in test [1] and in test [3] was at least 80% throughout. The compound further had a mortality at 500 ppm in test [2] of at least 80%.

On to `CC(c1cccnc1-c1ncccn1)N(CC1CC1)C(=O)c1cc(C(F)(F)F)cc(C(F)(F)F)c1` (stereo not drawn) [Compound P1, N-(cyclopropylmethyl)-N-[1-(2-pyrimidin-2-yl-3-pyridyl)ethyl]-3,5-bis(trifluoromethyl)benzamide], for which the mortality at 500 ppm in test [2] was at least 80%. Further, the percent control (mortality or growth inhibition) at 200 ppm in test [3] was at least 80%.

In the case of `CC(NC(=O)c1cc(C(F)(F)F)cc(C(F)(F)F)c1)c1nccnc1-c1ccc(Cl)cn1` (stereo not drawn) [Compound P36, N-[1-[3-(5-chloro-2-pyridyl)pyrazin-2-yl]ethyl]-3,5-bis(trifluoromethyl)benzamide], the percent control (mortality, anti-feedant effect or growth inhibition) at 200 ppm in test [6] is at least 80%.

Consider `CC(c1cnc(Cl)cc1-c1ncccn1)N(CC1CC1)C(=O)c1cc(C(F)(F)F)cc(C(F)(F)F)c1` (stereo not drawn) [Compound P8, N-[1-(6-chloro-4-pyrimidin-2-yl-3-pyridyl)ethyl]-N-(cyclopropylmethyl)-3,5-bis(trifluoromethyl)benzamide], for which the percent control (mortality or growth inhibition) at 200 ppm in test [1] was at least 80%. This compound also showed a mortality at 500 ppm in test [2] of at least 80%.

As to `CC(c1ccccc1-c1ncccn1)N(CC1CC1)C(=O)c1cc(C(F)(F)F)cc(C(F)(F)F)c1` (stereo not drawn) [Compound P26, N-(cyclopropylmethyl)-N-[1-(2-pyrimidin-2-ylphenyl)ethyl]-3,5-bis(trifluoromethyl)benzamide], the percent control (mortality or growth inhibition) at 200 ppm in test [1] was at least 80%. In test [2], this compound registered a mortality at 500 ppm of at least 80%.

With `CC(NC(=O)c1cc(C(F)(F)F)cc(C(F)(F)F)c1)c1nccnc1-c1ncccc1F` (stereo not drawn) [Compound P13, N-[1-[3-(3-fluoro-2-pyridyl)pyrazin-2-yl]ethyl]-3,5-bis(trifluoromethyl)benzamide], the percent control (mortality, anti-feedant effect or growth inhibition) at 200 ppm in test [6] and in test [4] was at least 80% in each case. Moreover, the percent control (mortality or growth inhibition) at 200 ppm in test [1] and in test [3] was at least 80% each time.

In the case of `CC(c1cnc(C(F)(F)F)cc1-c1ncccn1)N(CC1CC1)C(=O)c1cc(C(F)(F)F)cc(C(F)(F)F)c1` (stereo not drawn) [Compound P10, N-(cyclopropylmethyl)-N-[1-[4-pyrimidin-2-yl-6-(trifluoromethyl)-3-pyridyl]ethyl]-3,5-bis(trifluoromethyl)benzamide], the percent control (mortality or growth inhibition) at 200 ppm in test [1] is at least 80%. Besides, the mortality at 500 ppm in test [2] is at least 80%. In test [4], the percent control (mortality, anti-feedant effect or growth inhibition) at 200 ppm was at least 80%.

For `CC(c1nccnc1-c1ccccn1)N(CC1CC1)C(=O)c1cc(Cl)cc(C(F)(F)F)c1` (stereo not drawn) [Compound P11, 3-chloro-N-(cyclopropylmethyl)-N-[1-[3-(2-pyridyl)pyrazin-2-yl]ethyl]-5-(trifluoromethyl)benzamide], the percent control (mortality or growth inhibition) at 200 ppm in test [1] and in test [3] was at least 80% in each case. The compound also registered a mortality at 500 ppm in test [2] of at least 80%. Also, in test [4], the percent control (mortality, anti-feedant effect or growth inhibition) at 200 ppm is at least 80%.

In the case of `CC(NC(=O)c1cc(OC(F)F)cc(C(F)(F)F)c1)c1nccnc1-c1ncc(C2CC2)cn1` (stereo not drawn) [Compound P33, N-[1-[3-(5-cyclopropylpyrimidin-2-yl)pyrazin-2-yl]ethyl]-3-(difluoromethoxy)-5-(trifluoromethyl)benzamide], the percent control (mortality, anti-feedant effect or growth inhibition) at 200 ppm in test [6] and in test [4] was at least 80% throughout. In addition, the percent control (mortality or growth inhibition) at 200 ppm in test [1] and in test [3] was at least 80% each time.

Consider `CC(c1ncccc1-c1ncccn1)N(CC1CC1)C(=O)c1cc(C(F)(F)F)cc(C(F)(F)F)c1` (stereo not drawn) [Compound P3, N-(cyclopropylmethyl)-N-[1-(3-pyrimidin-2-yl-2-pyridyl)ethyl]-3,5-bis(trifluoromethyl)benzamide], for which the percent control (mortality or growth inhibition) at 200 ppm in test [1] and in test [3] was at least 80% in each case. Also, in test [2], the mortality at 500 ppm is at least 80%. In addition, the percent control (mortality, anti-feedant effect or growth inhibition) at 200 ppm in test [4] is at least 80%.

With `CC(NC(=O)c1cc(OC(F)F)cc(C(F)(F)F)c1)c1nccnc1-c1ccc(F)cn1` (stereo not drawn) [Compound P35, 3-(difluoromethoxy)-N-[1-[3-(5-fluoro-2-pyridyl)pyrazin-2-yl]ethyl]-5-(trifluoromethyl)benzamide], in test [1], the percent control (mortality or growth inhibition) at 200 ppm was at least 80%.

Turning to `CC(c1cnccc1-c1ncccn1)N(CC1CC1)C(=O)c1cc(C(F)(F)F)cc(C(F)(F)F)c1` (stereo not drawn) [Compound P2, N-(cyclopropylmethyl)-N-[1-(4-pyrimidin-2-yl-3-pyridyl)ethyl]-3,5-bis(trifluoromethyl)benzamide], the percent control (mortality or growth inhibition) at 200 ppm in test [1] was at least 80%. In test [2], the mortality at 500 ppm was at least 80%.

`CC(c1ccccc1-c1ccccn1)N(CC1CC1)C(=O)c1cc(C(F)(F)F)cc(C(F)(F)F)c1` (stereo not drawn) [Compound P28, N-(cyclopropylmethyl)-N-[1-[2-(2-pyridyl)phenyl]ethyl]-3,5-bis(trifluoromethyl)benzamide] showed a mortality at 500 ppm in test [2] of at least 80%.

As for `CC(NC(=O)c1cc(OCC(F)F)cc(C(F)(F)F)c1)c1nccnc1-c1ncc(C2CC2)cn1` (stereo not drawn) [Compound P32, N-[1-[3-(5-cyclopropylpyrimidin-2-yl)pyrazin-2-yl]ethyl]-3-(2,2-difluoroethoxy)-5-(trifluoromethyl)benzamide], the percent control (mortality, anti-feedant effect or growth inhibition) at 200 ppm in test [6] and in test [4] was at least 80% throughout. In addition, the percent control (mortality or growth inhibition) at 200 ppm in test [1] was at least 80%.
